The source of these data is patent US20090291938A1 (TAKEDA PHARMACEUTICAL COMPANY LIMITED, priority 2007, published 2009).

Some results are limits rather than exact numbers.

In the first test the test system is HT29 human colorectal adenocarcinoma cell line. Kind of test: cell proliferation assay (Cell Titer-Glo luminescent cell viability assay). It counts as cell-based. To be noted: HT-29, 72 h, read-out: pIC50 (converted). The procedure:
The cell culture and proliferation assay may be carried out as follows: the HT29 human colorectal adenocarcinoma cell line (ATCC, USA) was maintained in Dulbecco's Modified Eagle's Medium (Invitrogen, USA) supplemented with 10% fetal bovine serum (JRH, USA). The cell proliferation assay was carried out with the Cell Titer-Glo luminescent cell viability assay (Promega, USA) according to the manufacture's instruction after the 72 hr treatment of the cells in the presence of the compounds. The cell viability was shown as a percentage of DMSO treated cells.
A general note: Cellular ATP, detected with luciferase, serves as a proxy for viable cell number.
As for `CN1CCC(NC(=O)c2ccc(Nc3ncc4c(n3)N(C3CCCC3)CC(C)(C)C(=O)N4C)c(O)c2)CC1` [Compound 121], the IC50 is 3.16 to 10 nM.

`COc1cc(C(=O)NC2CCN(C)CC2)ccc1Nc1ncc2c(n1)N(C1CCCC1)CC(C)(C)C(=O)N2C` [Compound 86, 4-(9-cyclopentyl-5,7,7-trimethyl-6-oxo-6,7,8,9-tetrahydro-5H-pyrimido[4,5-b][1,4]diazepin-2-ylamino)-3-methoxy-N-(1-methylpiperidin-4-yl)benzamide]: the IC50 is 3.16 to 10 nM.

Turning to `COc1cc(C(=O)O)ccc1Nc1ncc2c(n1)N(C1CCCC1)CC(C)(C)C(=O)N2C` [Compound 85, 4-(9-Cyclopentyl-5,7,7-trimethyl-6-oxo-6,7,8,9-tetrahydro-5H-pyrimido[4,5-b][1,4]diazepin-2-ylamino)-3-methoxybenzoic Acid], the IC50 is 3.16 to 10 nM.

The test is the same for the next values; noted with them: HT-29, cell proliferative assay, HT29 cells, 72 hr treatment, values given as ranges, read-out: pIC50 (converted).
Consider `C=CCC1CN(C2CCCCC2)c2nc(Nc3ccc(C(=O)NC4CN(C)C4)cc3OC)ncc2N(C)C1=O` (centres unmarked) [Compound 225, 4-(7-allyl-9-cyclohexyl-5-methyl-6-oxo-6,7,8,9-tetrahydro-5H-pyrimido[4,5-b][1,4]diazepin-2-ylamino)-3-methoxy-N-(1-methylazetidin-3-yl)benzamide], for which the IC50 is 3.16 to 10 nM.

For the compound `COc1cc(C(=O)N[C@@H]2CCN(C)C2)ccc1Nc1ncc2c(n1)N(C1CCCC1)CCC(=O)N2C` [Compound 51, (R)-4-(9-cyclopentyl-5-methyl-6-oxo-6,7,8,9-tetrahydro-5H-pyrimido[4,5-b][1,4]diazepin-2-ylamino)-3-methoxy-N-(1-methylpyrrolidin-3-yl)benzamide], the IC50 was > 10 nM.

For the compound `COc1cc(C(=O)NCC2CCN(C(=O)C3CC3)CC2)ccc1Nc1ncc2c(n1)N(C1CCCC1)CCC(=O)N2C` [Compound 76, 4-(9-cyclopentyl-5-methyl-6-oxo-6,7,8,9-tetrahydro-5H-pyrimido[4,5-b][1,4]diazepin-2-ylamino)-N-((1-(cyclopropanecarbonyl)piperidin-4-yl)methyl)-3-methoxybenzamide], the IC50 was > 10 nM.

For `C=C[C@]1(C)CN(C2CCCC2)c2nc(Nc3ccc(C(=O)NC4CCN(C)CC4)cc3OC)ncc2N(C)C1=O` [Compound 240, (R)-4-(9-cyclopentyl-5,7-dimethyl-6-oxo-7-vinyl-6,7,8,9-tetrahydro-5H-pyrimido[4,5-b][1,4]diazepin-2-ylamino)-3-methoxy-N-(1-methylpiperidin-4-yl)benzamide], the IC50 was 3.16 to 10 nM.

As for `CNC(=O)c1ccc(Nc2ncc3c(n2)N(C2CCCC2)CCC(=O)N3C)c(OC)c1` [Compound 10, 4-[(9-cyclopentyl-5-methyl-6-oxo-6,7,8,9-tetrahydro-5H-pyrimido[4,5-b][1,4]diazepin-2-yl)amino]-3-methoxy-N-methylbenzamide], the IC50 was 3.16 to 10 nM.

Regarding `COc1cc(C(=O)N[C@@H]2CCCNC2)ccc1Nc1ncc2c(n1)N(C1CCCC1)CCC(=O)N2C` [Compound 49, (R)-4-(9-cyclopentyl-5-methyl-6-oxo-6,7,8,9-tetrahydro-5H-pyrimido[4,5-b][1,4]diazepin-2-ylamino)-3-methoxy-N-(piperidin-3-yl)benzamide], the IC50 was > 10 nM.

For `COc1cc(C(=O)NC2CCNCC2)ccc1Nc1ncc2c(n1)N(C1CCCC1)CCC(=O)N2C` [Compound 56, 4-(9-cyclopentyl-5-methyl-6-oxo-6,7,8,9-tetrahydro-5H-pyrimido[4,5-b][1,4]diazepin-2-ylamino)-3-methoxy-N-(piperidin-4-yl)benzamide], the IC50 was > 10 nM.

As to `COc1cc(C(=O)N[C@H]2CCCNC2)ccc1Nc1ncc2c(n1)N(C1CCCCC1)CC(C)(C)C(=O)N2C` [Compound 111, (S)-4-(9-cyclohexyl-5,7,7-trimethyl-6-oxo-6,7,8,9-tetrahydro-5H-pyrimido[4,5-b][1,4]diazepin-2-ylamino)-3-methoxy-N-(piperidin-3-yl)benzamide], the IC50 was 1 to 2.51 nM.

For the compound `COc1cc(C(=O)NC2CN(C)C2)ccc1Nc1ncc2c(n1)N(C1CCCCC1)CC(C1CC1)C(=O)N2C` (centres unmarked) [Compound 157, 4-(9-cyclohexyl-7-cyclopropyl-5-methyl-6-oxo-6,7,8,9-tetrahydro-5H-pyrimido[4,5-b][1,4]diazepin-2-ylamino)-3-methoxy-N-(1-methylazetidin-3-yl)benzamide], the IC50 is > 10 nM.

For `CC[C@]1(C)CN(C2CCCCC2)c2nc(Nc3ccc(C(=O)NC4CN(C)C4)cc3OC)ncc2N(C)C1=O` [Compound 145, (R)-4-(9-cyclohexyl-7-ethyl-5,7-dimethyl-6-oxo-6,7,8,9-tetrahydro-5H-pyrimido[4,5-b][1,4]diazepin-2-ylamino)-3-methoxy-N-(1-methylazetidin-3-yl)benzamide], the IC50 was 3.16 to 10 nM.

As to `C=CCC1CN(C2CCCCC2)c2nc(Nc3ccc(C(=O)N[C@H]4CCNC4)cc3OC)ncc2N(C)C1=O` (stereo partly drawn) [Compound 194, 4-(7-allyl-9-cyclohexyl-5-methyl-6-oxo-6,7,8,9-tetrahydro-5H-pyrimido[4,5-b][1,4]diazepin-2-ylamino)-3-methoxy-N-((S)-pyrrolidin-3-yl)benzamide], the IC50 is < 1 nM.

On to `COc1cc(C(=O)NN2CCN(C)CC2)ccc1Nc1ncc2c(n1)N(C1CCCC1)CC1(CC1)C(=O)N2C` [Compound 168, 4-(9′-cyclopentyl-5′-methyl-6′-oxo-5′,6′,8′,9′-tetrahydrospiro[cyclopropane-1,7′-pyrimido[4,5-b][1,4]diazepine]-2′-ylamino)-3-methoxy-N-(4-methylpiperazin-1-yl)benzamide], for which the IC50 is 1 to 2.51 nM.

`COc1cc(C(=O)NCCN2CCCC2)ccc1Nc1ncc2c(n1)N(C1CCCC1)CCC(=O)N2C` [Compound 57, 4-(9-cyclopentyl-5-methyl-6-oxo-6,7,8,9-tetrahydro-5H-pyrimido[4,5-b][1,4]diazepin-2-ylamino)-3-methoxy-N-(2-(pyrrolidin-1-yl)ethyl)benzamide]: the IC50 is > 10 nM.

For the compound `COc1cc(C(=O)N[C@H]2CC[C@H](O)CC2)ccc1Nc1ncc2c(n1)N(C1CCCC1)CC(C)(C)C(=O)N2C` [Compound 103, 4-(9-cyclopentyl-5,7,7-trimethyl-6-oxo-6,7,8,9-tetrahydro-5H-pyrimido[4,5-b][1,4]diazepin-2-ylamino)-N-((1R,4R)-4-hydroxycyclohexyl)-3-methoxybenzamide], the IC50 was 1 to 2.51 nM.

Regarding `CCN(CC)C1CCC(NC(=O)c2ccc(Nc3ncc4c(n3)N(C3CCCC3)CCC(=O)N4C)c(OC)c2)CC1` (centres unmarked) [Compound 79, 4-(9-cyclopentyl-5-methyl-6-oxo-6,7,8,9-tetrahydro-5H-pyrimido[4,5-b][1,4]diazepin-2-ylamino)-N-(4-(diethylamino)cyclohexyl) 3-methoxybenzamide], the IC50 was > 10 nM.

As to `COc1cc(C(=O)NC2CN(C)C2)ccc1Nc1ncc2c(n1)N(C1CCCC1)CC(C)(C)C(=O)N2C` [Compound 95, 4-(9-cyclopentyl-5,7,7-trimethyl-6-oxo-6,7,8,9-tetrahydro-5H-pyrimido[4,5-b][1,4]diazepin-2-ylamino)-3-methoxy-N-(1-methylazetidin-3-yl)benzamide], the IC50 was 1 to 2.51 nM.

Turning to `COc1cc(C(=O)NCc2cccnc2)ccc1Nc1ncc2c(n1)N(C1CCCC1)CCC(=O)N2C` [Compound 70, 4-(9-cyclopentyl-5-methyl-6-oxo-6,7,8,9-tetrahydro-5H-pyrimido[4,5-b][1,4]diazepin-2-ylamino)-3-methoxy-N-(pyridin-3-ylmethyl)benzamide], the IC50 was 3.16 to 10 nM.

Turning to `COc1cc(C(=O)NC2CCNCC2)ccc1Nc1ncc2c(n1)N(C1CCCCC1)CC(C)(C)C(=O)N2C` [Compound 116, 4-(9-cyclohexyl-5,7,7-trimethyl-6-oxo-6,7,8,9-tetrahydro-5H-pyrimido[4,5-b][1,4]diazepin-2-ylamino)-3-methoxy-N-(piperidin-4-yl)benzamide], the IC50 is 3.16 to 10 nM.

As for `COc1cc(C(=O)NCC2CCNCC2)ccc1Nc1ncc2c(n1)N(C1CCCC1)CCC(=O)N2C` [Compound 60, 4-(9-cyclopentyl-5-methyl-6-oxo-6,7,8,9-tetrahydro-5H-pyrimido[4,5-b][1,4]diazepin-2-ylamino)-3-methoxy-N-(piperidin-4-ylmethyl)benzamide], the IC50 is > 10 nM.

Turning to `C#CCC1CN(C2CCCC2)c2nc(Nc3ccc(C(=O)NC4CCNCC4)cc3OC)ncc2N(C)C1=O` (centres unmarked) [Compound 211, 4-(9-cyclopentyl-5-methyl-6-oxo-7-(prop-2-ynyl)-6,7,8,9-tetrahydro-5H-pyrimido[4,5-b][1,4]diazepin-2-ylamino)-3-methoxy-N-(piperidin-4-yl)benzamide], the IC50 was 1 to 2.51 nM.

Regarding `COc1cc(C(=O)NC[C@@H]2CCCN2)ccc1Nc1ncc2c(n1)N(C1CCCC1)CCC(=O)N2C` [Compound 61, (S)-4-(9-cyclopentyl-5-methyl-6-oxo-6,7,8,9-tetrahydro-5H-pyrimido[4,5-b][1,4]diazepin-2-ylamino)-3-methoxy-N-(pyrrolidin-2-ylmethyl)benzamide], the IC50 was > 10 nM.

In the case of `C=CCC1CN(C2CCCCC2)c2nc(Nc3ccc(C(=O)N[C@H]4CCN(C)C4)cc3OC)ncc2N(C)C1=O` (stereo partly drawn) [Compound 229, 4-(7-allyl-9-cyclohexyl-5-methyl-6-oxo-6,7,8,9-tetrahydro-5H-pyrimido[4,5-b][1,4]diazepin-2-ylamino)-3-methoxy-N-((S)-1-methylpyrrolidin-3-yl)benzamide], the IC50 is 1 to 2.51 nM.

As for `COc1cc(C(=O)N[C@@H]2CCCN(C)C2)ccc1Nc1ncc2c(n1)N(C1CCCC1)CC(C)(C)C(=O)N2C` [Compound 98, (R)-4-(9-cyclopentyl-5,7,7-trimethyl-6-oxo-6,7,8,9-tetrahydro-5H-pyrimido[4,5-b][1,4]diazepin-2-ylamino)-3-methoxy-N-(1-methylpiperidin-3-yl)benzamide], the IC50 is 1 to 2.51 nM.
